This passage reports IC50 results from US8703723B2, “Glycoside compounds and pharmaceutical compositions thereof” (Centrose, LLC, priority 2009, dated 2014).

Common to all, as to format: cell-based, human
Experiment [1] has as its system SKOV3 (Ovarian) cell line. The experiment can be described thus: Cancer cell cytotoxicity assay (Calcein AM / Cell Titer-Glo), SKOV3. The procedure:
(§1) Compounds of the invention and comparative compounds were assayed in three cancer cell lines to confirm cytotoxic activity and to set a range of concentrations to use in subsequent assays. All cell lines were maintained in RPMI medium 1640 supplemented with 10% (wt/vol) fetal bovine serum and penicillin-streptomycin (100 units/ml and 100 μg/ml). Cells were routinely checked for microbial or mycoplasma contamination and if necessary replaced. Cells were harvested by trypsinization using 0.25% trypsin and 0.1% EDTA and then counted in a ViCell XR coulter counter in duplicate, before and after dilution for assay plating. Between four to nine different types of human cancer cells were plated at a density of 10,000-15,000 cells per well of each 96-well black tissue culture treated microtiter plate, then were grown for 1 hour at 37° C. with 5% CO2/95% air in a humidified incubator to allow cells to attach before compound addition. Compound stocks (100×) were prepared in 96-well V-bottom polypropylene microtiter plates. Five serial (1:2) dilutions were made with anhydrous DMSO at 100× the final concentration used in the assay. The individual wells in compound-containing […] well plates were diluted 1:10 with complete cell culture medium and the 10× (10 μL) stocks were added to 90 μl of cells in each plate to ensure full mixing of stocks with culture media by using a Biomek FX liquid handler with 96-well head. Doxorubicin was used as the control to monitor the behavior of each cell line. Cells were incubated with the compounds for 3 to 4 days before fluorescence and luminescence reading. Test plates were removed from the incubator and washed once in sterile PBS to remove serum containing calcium esterases. Calcein AM (acetoxymethyl ester) reagent was added and the cells were incubated for 30 min at 37° C. Plates were read for emission by using a fluorescein filter (excitation 485 nm, emission 535 nm). An equal volume (30 μL) of Cell Titer-Glo reagent (Promega Corporation, Inc.) was added and incubated for 10 min at room temperature with gentle agitation to lyse the cells. Each plate was re-read for luminescence to confirm the inhibition observed in the fluorescent […] assay as a measure of cell viability. The cancer cell cytotoxicity assays were run in triplicate using ≧5 different drug concentrations, and the data were analyzed to establish statistical significance and a valid IC50 value for inhibition of cell growth, based on ≧2 log differences in drug effect.
(§2) The cancer cell cytotoxicities (determined substantially according to the method of Example 5) of various compounds of the invention and comparative compounds as determined in four to five different human cancer cell lines are shown in Table 1. The structures of the compounds listed are found in FIGS. 2-4.

The test system of experiment [2] is H1299 (NSCLC) cell line. The experiment can be described thus: Cancer cell cytotoxicity assay (Calcein AM / Cell Titer-Glo), H1299. The procedure:
as §1, §2

In experiment [3] the test system is A549 (NSCLC) cell line. The experiment can be described thus: Cancer cell cytotoxicity assay (Calcein AM / Cell Titer-Glo), A549. The procedure:
as §1, §2

For experiment [4], the system named is HT29 (Colorectal) cell line. The experiment can be described thus: Cancer cell cytotoxicity assay (Calcein AM / Cell Titer-Glo), HT29. The procedure: as §1, §2
Experiment [5] relates to NCI-H460 (NSCLC) cell line. The experiment can be described thus: Cancer cell cytotoxicity assay (Calcein AM / Cell Titer-Glo), NCI-H460. The procedure:
as §1, §2

Setting [6] is: Ovarian, footnote 3: determined at same time as CEN07-117 and -121.
[7] abbreviates: NSCLC, footnote 3: determined at same time as CEN07-117 and -121.
Setting [8] is: Colorectal, footnote 3: determined at same time as CEN07-117 and -121.
The mark [9] stands for this setting: Ovarian, assay set not specified.
The mark [10] stands for this setting: Colorectal, assay set not specified.
Setting [11] is: NSCLC, footnote 4: determined at same time as CEN08-177 and -178.
[12] abbreviates: NSCLC, footnote 7: determined at same time as CEN08-180.

As to `CON(C1CCC2(C)C(CCC3C2CC(O)C2(C)C(C4=CC(=O)OC4)CCC32O)C1)C1OCC(O)C(O)C1O` (centres unmarked) [CEN07-117], the half-maximal inhibitory concentration (IC50) is 550 nM in experiment [1] (setting [6]); 500 nM in experiment [2] (setting [7]); 340 nM in experiment [3] (setting [7]); 440 nM in experiment [4] (setting [8]); 350 nM in experiment [5] (setting [7]).
As for `C[C@@H]1O[C@@H](O[C@@H]2C=C3CC[C@@H]4[C@H](CC[C@]5(C)[C@@H](c6ccc(=O)oc6)CC[C@]45O)[C@@]3(C)CC2)[C@H](O)[C@H](O)[C@H]1O` [proscillaridin, reference compound], the IC50 in experiment [1] (Homo sapiens, SK-OV-3, Ovarian, assay set not specified) was 12 nM; in experiment [1] (Homo sapiens, SK-OV-3, Ovarian, footnote 6: determined at same time as CEN08-243 and -244) it was 15 nM; in experiment [1] (Homo sapiens, SK-OV-3, Ovarian, footnote 7: determined at same time as CEN08-180) it was 11 nM; in experiment [1] (Homo sapiens, SK-OV-3, Ovarian, footnote 5: determined at same time as CEN08-193) it was 45 nM; in experiment [2] (Homo sapiens, NCI-H1299, NSCLC, footnote 6: determined at same time as CEN08-243 and -244) it was 8 nM; in experiment [2] (Homo sapiens, NCI-H1299, NSCLC, footnote 7: determined at same time as CEN08-180), 4 nM. Moreover, the IC50 is 3 nM in experiment [2] (Homo sapiens, NCI-H1299, NSCLC, footnote 5: determined at same time as CEN08-193); 12 nM in experiment [3] (Homo sapiens, A549, NSCLC, footnote 6: determined at same time as CEN08-243 and -244); 3 nM in experiment [3] (Homo sapiens, A549, NSCLC, footnote 7: determined at same time as CEN08-180); 2 nM in experiment [3] (Homo sapiens, A549, NSCLC, footnote 5: determined at same time as CEN08-193); 10 nM in experiment [4] (Homo sapiens, HT-29, Colorectal, footnote 7: determined at same time as CEN08-180); 7 nM in experiment [4] (Homo sapiens, HT-29, Colorectal, footnote 5: determined at same time as CEN08-193). The IC50 was 12 nM in experiment [5] (Homo sapiens, NCI-H460, NSCLC, footnote 6: determined at same time as CEN08-243 and -244); 11 nM in experiment [5] (Homo sapiens, NCI-H460, NSCLC, footnote 7: determined at same time as CEN08-180); 5 nM in experiment [5] (Homo sapiens, NCI-H460, NSCLC, footnote 5: determined at same time as CEN08-193).
Regarding `CON(C1C=C2CCC3C(CCC4(C)C(c5ccc(=O)oc5)CCC34O)C2(C)CC1)C1OCC(O)C(O)C1O` (centres unmarked) [CEN08-185], the concentration for half-maximal inhibition (IC50) in experiment [1] (setting [9]) was 15 nM; in experiment [2] (NSCLC, assay set not specified) it was 5 nM; in experiment [3] (NSCLC, assay set not specified), 2 nM; in experiment [4] (setting [10]) it was 13 nM; in experiment [5] (NSCLC, assay set not specified), 9 nM.
In the case of `CON(C1C=C2CCC3C(CCC4(C)C(c5ccc(=O)oc5)CCC34O)C2(C)CC1)C1OC(CO)C(O)C(O)C1N` (centres unmarked) [CEN08-237], the half-inhibitory concentration (IC50) in experiment [2] (NSCLC, assay set not specified) is 20 nM; in experiment [3] (NSCLC, assay set not specified), 21 nM; in experiment [5] (NSCLC, assay set not specified), 37 nM.
Take `CON(C1CCC2(C)C(CCC3C2CCC2(C)C(C4=CC(=O)OC4)CCC32O)C1)C1OCC(N)C(O)C1O` (centres unmarked) [CEN08-242]: the IC50 in experiment [1] (setting [9]) was 228 nM; in experiment [2] (NSCLC, assay set not specified), 159 nM; in experiment [3] (NSCLC, assay set not specified), 50 nM; in experiment [5] (NSCLC, assay set not specified) it was 74 nM.
On the same counts, the results for `CC1OC(=O)C=C1C1CCC2(O)C3CCC4CC(OC5OCC(O)C(O)C5O)CCC4(C)C3CCC12C` (centres unmarked) [CEN08-245] are 3220 nM, 3700 nM, 1290 nM and 2100 nM.
In the case of `CC12CCC(OC3OCC(O)C(O)C3O)CC1CCC1C2CCC2(C)C(C3=CC(=O)OC3)CCC12O` (centres unmarked) [CEN08-177], the IC50 in experiment [1] (Ovarian, footnote 4: determined at same time as CEN08-177 and -178) is 80 nM; in experiment [2] (setting [11]), 40 nM; in experiment [3] (setting [11]), 20 nM; in experiment [4] (Colorectal, footnote 4: determined at same time as CEN08-177 and -178), 70 nM; in experiment [5] (setting [11]) it was 20 nM.
For `CON(C1CCC2(C)C(CCC3C2CC(O)C2(C)C(C4=CC(=O)OC4)CCC32O)C1)C1OCC(O)C(O)C1O` (centres unmarked) [CEN07-121], the IC50 in experiment [1] (setting [6]) is 300 nM; in experiment [2] (setting [7]), 430 nM; in experiment [3] (setting [7]), 150 nM; in experiment [4] (setting [8]) it was 230 nM; in experiment [5] (setting [7]) it was 160 nM.
Take `CC12CCC(OC3OCC(O)C(O)C3O)C=C1CCC1C2CCC2(C)C(c3ccc(=O)oc3)CCC12O` (centres unmarked) [CEN08-192]: the IC50 was 72 nM in experiment [1] (setting [9]); 11 nM in experiment [2] (NSCLC, assay set not specified); 8 nM in experiment [3] (NSCLC, assay set not specified); 16 nM in experiment [4] (setting [10]); 16 nM in experiment [5] (NSCLC, assay set not specified).
Consider “(3β)-3-N-methoxyaminoscillarenin [CEN08-180]”, for which the IC50 is 34 nM in experiment [1] (Ovarian, footnote 7: determined at same time as CEN08-180); 8 nM in experiment [2] (setting [12]); 3 nM in experiment [3] (setting [12]); 26 nM in experiment [4] (Colorectal, footnote 7: determined at same time as CEN08-180); 13 nM in experiment [5] (setting [12]).
For `CON(C1CCC2(C)C(CCC3C2CCC2(C)C(C4=CC(=O)OC4)CCC32O)C1)C1OCC(N)C(O)C1O` (centres unmarked) [CEN08-241], the IC50 in experiment [1] (setting [9]) was 74 nM; in experiment [2] (NSCLC, assay set not specified) it was 24 nM; in experiment [3] (NSCLC, assay set not specified), 20 nM; in experiment [5] (NSCLC, assay set not specified) it was 27 nM.
Take `CC12CCC(OC3OCC(O)C(O)C3O)C=C1CCC1C2CCC2(C)C(c3ccc(=O)oc3)CCC12O` (centres unmarked) [CEN08-190]: the IC50 in experiment [1] (setting [9]) was 28 nM; in experiment [2] (NSCLC, assay set not specified) it was 4 nM; in experiment [3] (NSCLC, assay set not specified), 4 nM; in experiment [4] (setting [10]), 6 nM; in experiment [5] (NSCLC, assay set not specified), 6 nM.
